In series [1] the target is T1, Cytochrome P450 (CYP) 2D6 enzyme (Homo sapiens, UniProt P10635).
T1 construct: using pooled male and female human liver microsomes; from tissue; host or cells: pooled male and female human liver microsomes
In words: Cytochrome P450 (CYP) 2D6 enzyme time dependent inhibition (TDI) assay. The class given is in vitro ADME. The note with it: human liver microsomes. The method, then: Example B-3: Cytochrome P450 (CYP) 2D6 Enzyme Time Dependent Inhibition (TDI) Assay Protocol
The NADPH-generating system mix was composed of potassium phosphate buffer pH 7.4 (50 mM), NADP+ (1 mM), magnesium chloride (3 mM), EDTA (1 mM), glucose-6-phosphate (5 mM), glucose-6-phosphate dehydrogenase (1 Unit/mL), human liver microsomes (0.1 mg/mL) and water. Compounds of interest in DMSO serial diluted to six different concentrations (final DMSO content of 0.1% v/v) were added to the NADPH-generating system. CYP 2D6 substrate Dextromethorphan was added at a final incubation concentration of 5 μM. The final incubation volume was 200 μL. Incubations were conducted at 37° C. for 10 minutes in a shaking water bath to evaluate the drug candidates as […] of CYP 2D6. In a separate test plate, drug candidates were pre-incubated at 37° C. for 30 minutes in a shaking water bath in NADPH-generating system mix in the absence of Dextromethorphan substrate to allow for the formation of metabolites. This plate was removed from the water bath and placed on ice for 5 minutes. Dextromethorphan substrate was then added and the plate was incubated at 37° C. for 10 minutes in a shaking water bath to determine if any metabolites formed during the 30 minute pre-incubation inhibit the CYP 2D6 enzyme. All incubations were terminated by removing 50 μL of incubation mixture and adding to 200 μL of ice cold acetonitrile containing internal standard. Following precipitation by centrifugation at 3500 rpm and 4° C. for 30 minutes, the resultant supernatant were analyzed by using a multiple reaction monitoring (MRM) LC-MS/MS method detecting for internal standard and the CYP 2D6 enzyme mediated Dextromethorphan O-demethylation metabolite Dextrorphan and IC50 values were determined.
(§1) Table E illustrates representative human liver microsomal stability and time dependent CYP2D6 inhibition (TDI) of exemplary compounds.
In general terms: Microsomes from liver hold many membrane-bound enzymes, among them those of drug oxidation.

Series [2] is described as follows: Liver microsomal stability assay. Format: in vitro ADME. The note with it: both sexes, human, pooled human liver microsomes; read-out: HLM Stability t½. The method, then:
Example B-2: Liver Microsomal Stability Assay Protocol
The in vitro stabilities of compounds of interest were determined for various species using pooled male and female human, pooled male Sprague-Dawley rat, pooled male Cynomolgus monkey, and pooled male Beagle dog liver microsomes at microsomal protein concentrations of 0.5 mg/mL. Incubations were carried out in a potassium phosphate buffer (50 mM). The NADPH-generating system was composed of NADP+ (1 mM), magnesium chloride (3 mM), EDTA (1 mM), glucose-6-phosphate (5 mM) and glucose-6-phosphate dehydrogenase (1 Unit/mL) for all experiments. Compounds of interest in DMSO/acetonitrile were added to achieve a final incubation concentration of 1 μM (final DMSO content was 0.1% v/v and final acetonitrile content was 0.9%). The final incubation volume was 400 μL. Incubations were conducted at 37° C. for 0, 5, 10, 20, 40 and 60 minutes in a shaking water bath and terminated by removing 50 μL of incubation mixture and adding to 100 μL of ice cold acetonitrile containing internal standard. Following precipitation by centrifugation at 3500 rpm and 4° C. for 30 minutes, compounds of interest and internal standard were analyzed in the resultant supernatant using a multiple reaction monitoring (MRM) LC-MS/MS method. MS conditions were optimized for each analyte.
as §1

In series [3] the target is T2, human somatostatin receptor subtype 3 (Homo sapiens, UniProt P32745).
T2 construct: expressed in transfected cells
T2 sequence (P32745 whole entry): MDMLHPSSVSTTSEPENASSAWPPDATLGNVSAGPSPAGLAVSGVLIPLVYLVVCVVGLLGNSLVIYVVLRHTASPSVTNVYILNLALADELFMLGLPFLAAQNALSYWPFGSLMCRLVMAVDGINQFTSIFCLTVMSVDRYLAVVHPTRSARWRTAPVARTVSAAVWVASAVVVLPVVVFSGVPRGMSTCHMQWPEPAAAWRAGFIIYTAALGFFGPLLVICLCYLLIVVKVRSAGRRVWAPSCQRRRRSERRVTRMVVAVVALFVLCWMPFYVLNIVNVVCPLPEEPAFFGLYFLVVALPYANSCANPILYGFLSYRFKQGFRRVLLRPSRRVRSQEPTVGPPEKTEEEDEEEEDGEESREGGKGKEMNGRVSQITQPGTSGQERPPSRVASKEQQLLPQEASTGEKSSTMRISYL
In words: cAMP assay for SST3R (inhibition of cAMP via human SST3 receptor). The class given is cell-based. The note with it: from inhibition of cAMP via human SST5 receptor and human SST3 receptor. From the text:
cAMP Assay Protocol for SST3R:
A general note: Cyclic AMP is a second messenger, typically raised through Gs and lowered through Gi signalling.

The target in series [4] is T3, human somatostatin receptor subtype 2 (Homo sapiens, UniProt P30874).
T3 construct: expressed in transfected cells
T3 sequence (P30874 whole entry): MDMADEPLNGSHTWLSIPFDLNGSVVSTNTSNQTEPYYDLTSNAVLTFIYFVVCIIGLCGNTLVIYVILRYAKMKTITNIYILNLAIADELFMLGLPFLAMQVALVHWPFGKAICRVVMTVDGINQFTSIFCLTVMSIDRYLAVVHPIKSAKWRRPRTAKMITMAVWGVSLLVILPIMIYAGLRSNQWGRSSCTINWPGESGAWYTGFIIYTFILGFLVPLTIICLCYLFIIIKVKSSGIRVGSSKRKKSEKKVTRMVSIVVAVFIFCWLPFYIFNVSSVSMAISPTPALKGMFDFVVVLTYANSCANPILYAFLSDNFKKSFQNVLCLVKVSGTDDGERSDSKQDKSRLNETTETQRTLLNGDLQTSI
In words: cAMP assay for SST2R (inhibition of cAMP via human SST2 receptor). Format: cell-based. The note with it: Table B, read-out: SST2 potency. From the text: cAMP Assay Protocol for SST2R:

The target of series [5] is human somatostatin receptor subtype 5 (Homo sapiens, UniProt P35346). Nature of the series: cAMP assay for SST5R (inhibition of cAMP via human SST5 receptor). The note with it: for Fold selectivity for SST5 vs SST2: SST5 over SST2, class symbols.
human somatostatin receptor subtype 5, sequence (P35346 whole entry): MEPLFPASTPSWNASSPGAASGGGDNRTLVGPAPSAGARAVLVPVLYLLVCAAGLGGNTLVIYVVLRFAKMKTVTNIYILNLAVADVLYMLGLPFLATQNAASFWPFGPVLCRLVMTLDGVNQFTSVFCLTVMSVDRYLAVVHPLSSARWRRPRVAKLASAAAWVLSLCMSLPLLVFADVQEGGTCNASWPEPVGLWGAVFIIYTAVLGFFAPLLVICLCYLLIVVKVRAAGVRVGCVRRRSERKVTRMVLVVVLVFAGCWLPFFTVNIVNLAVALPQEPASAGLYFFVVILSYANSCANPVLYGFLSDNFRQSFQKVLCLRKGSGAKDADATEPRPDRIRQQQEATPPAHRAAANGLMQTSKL
Experimental: cAMP Assay Protocol for SST5R:
The cells are cultured at 37° C., 5% CO2 and 95% humidity. […] The cells are incubated for 20 minutes at 37° C. […] The cells are treated with 50 μL of lysis buffer (HRTF cAMP kit, Cisbio) for 30 minutes and then the lysate is diluted to 250 μL with assay buffer. The lysate is transferred to 384-well plates and cAMP detection and visualization antibodies are added and incubated for 1-24 hours at room temperature. The time-resolved fluorescent signal is read with a Tecan M1000Pro multiplate reader. The intracellular cAMP concentrations are calculated by regression to a standard curve and are plotted vs. the concentration of the compounds of the invention and the EC50 of the compounds are calculated using standard methods. All data manipulations are in GraphPad Prism v6 or v7.
Series [6] deals with T4, human somatostatin receptor subtype 4 (Homo sapiens, UniProt P31391).
T4 construct: expressed in transfected cells
T4 sequence (P31391 whole entry): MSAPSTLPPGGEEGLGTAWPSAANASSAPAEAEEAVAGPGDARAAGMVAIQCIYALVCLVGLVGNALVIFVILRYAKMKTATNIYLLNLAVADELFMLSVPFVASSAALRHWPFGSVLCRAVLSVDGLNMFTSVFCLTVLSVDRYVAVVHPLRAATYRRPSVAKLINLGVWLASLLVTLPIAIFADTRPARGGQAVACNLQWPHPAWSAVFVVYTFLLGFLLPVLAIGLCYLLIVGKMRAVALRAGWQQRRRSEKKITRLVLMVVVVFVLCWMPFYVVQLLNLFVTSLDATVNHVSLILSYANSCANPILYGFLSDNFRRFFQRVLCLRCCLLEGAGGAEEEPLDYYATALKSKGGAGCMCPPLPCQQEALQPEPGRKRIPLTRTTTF
In words: cAMP assay for hSST4R (inhibition of cAMP via human SST4 receptor). The class given is cell-based. The note with it: from inhibition of cAMP via human SST5 receptor and human SST4 receptor. From the text: cAMP Assay Protocol hSST4R:

The mark [7] stands for this setting: t = 0 min pre-incubation, read-out: CYP2D6 inhibition, IC50 (μM) t = 0 min.
Setting [8] is: t = 30 min pre-incubation, read-out: CYP2D6 inhibition, IC50 (μM) t = 30 min.
[9] abbreviates: read-out: SST5 potency, inhibition of cAMP via human SST5 receptor, Table B.

SMILES strings stand for the structures. Read-outs that look alike come from different tables or passages of the source. Where only a bound is given, the exact number is not on record here.

A word on the IC50: it is the point on the concentration scale where inhibition reaches its midpoint.

T1 sequence (P10635 whole entry): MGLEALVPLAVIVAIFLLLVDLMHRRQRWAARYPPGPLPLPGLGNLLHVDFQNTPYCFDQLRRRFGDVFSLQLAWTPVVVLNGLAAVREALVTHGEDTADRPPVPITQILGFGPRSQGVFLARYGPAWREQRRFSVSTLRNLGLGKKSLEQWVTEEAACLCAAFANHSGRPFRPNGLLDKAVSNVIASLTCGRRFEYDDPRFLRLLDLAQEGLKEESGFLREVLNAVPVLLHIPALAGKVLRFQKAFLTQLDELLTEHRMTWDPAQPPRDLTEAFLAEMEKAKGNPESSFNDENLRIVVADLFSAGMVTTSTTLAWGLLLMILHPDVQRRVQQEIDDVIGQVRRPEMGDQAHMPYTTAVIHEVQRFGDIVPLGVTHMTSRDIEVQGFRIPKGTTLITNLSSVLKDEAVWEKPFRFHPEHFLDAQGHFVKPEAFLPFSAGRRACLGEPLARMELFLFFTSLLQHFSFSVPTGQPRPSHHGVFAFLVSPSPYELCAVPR

Take `Cc1cccc2[nH]c(-c3cncc(-c4cc(F)cc(C#N)c4)c3N3CC[C@H](N)C3)nc12` [Compound 2-34, 3-{4-[(3S)-3-aminopyrrolidin-1-yl]-5-(4-methyl-1H-1,3-benzodiazol-2-yl)pyridin-3-yl}-5-fluorobenzonitrile]: the IC50 in series [1] (setting [7]) and in series [1] (setting [8]) was over 10 µM each time. Moreover, the half-life at 1 μM in series [2] is over 11.6 h.
For the molecule `Cc1ccnc2[nH]c(-c3cncc(-c4ccc(F)c(C#N)c4)c3N3CC[C@](C)(N)C3)nc12` [Compound 2-154, 5-{4-[(3S)-3-amino-3-methylpyrrolidin-1-yl]-5-{7-methyl-1H-imidazo[4,5-b]pyridin-2-yl}pyridin-3-yl}-2-fluorobenzonitrile], the “Fold selectivity for SST5 vs SST3” value in series [3] is listed as 118 fold. Also, the half-maximal inhibitory concentration (IC50) in series [1] (setting [7]) and in series [1] (setting [8]) was over 10 µM each time. For the same molecule, the EC50 in series [4] was 10 to 100 nM; in series [5], under 10 nM; in series [5] (setting [9]), under 10 nM. Moreover, in series [2], the half-life at 1 μM was over 11.6 h. For the same molecule, the “Fold selectivity for SST5 vs SST2” value in series [5] is on record as “++ (++=100 to 499)”.
Take `C[C@]1(N)CCN(c2c(-c3ccc(F)c(C#N)c3)cncc2-c2nc3cccc(C#N)c3[nH]2)C1` [Compound 2-171, 2-{4-[(3S)-3-amino-3-methylpyrrolidin-1-yl]-5-(3-cyano-4-fluorophenyl)pyridin-3-yl}-1H-1,3-benzodiazole-7-carbonitrile]: in series [6], the “Fold selectivity for SST5 vs SST4” value is on record as 18 fold. For the same molecule, in series [3], the “Fold selectivity for SST5 vs SST3” value came out at 183 fold. In addition, the values for the EC50 in series [4], in series [5] and in series [5] (setting [9]) were 100 to 1000 nM, under 10 nM and under 10 nM, respectively. For the same molecule, the “Fold selectivity for SST5 vs SST2” value in series [5] was “+++ (+++=≥500)”.
As to `Cc1cc(-c2cncc(-c3nc4c(F)cccc4[nH]3)c2N2CC[C@](C)(N)C2)ccn1` [Compound 2-178, (3S)-1-[5-(4-fluoro-1H-1,3-benzodiazol-2-yl)-2′-methyl-[3,4′-bipyridin]-4-yl]-3-methylpyrrolidin-3-amine], in series [3], the “Fold selectivity for SST5 vs SST3” value is 147 fold. Also, the IC50 was over 10 µM in series [1] (setting [7]) and 9.7 µM in series [1] (setting [8]). Also, the EC50 in series [4] was over 1000 nM; in series [5], under 10 nM; in series [5] (setting [9]), under 10 nM. Also, the half-life at 1 μM in series [2] is 3.85 h. Also, the “Fold selectivity for SST5 vs SST2” value in series [5] was “++ (++=100 to 499)”.
For `C[C@]1(N)CCN(c2c(-c3ccnc(C(F)(F)F)c3)cncc2-c2nc3c(F)cccc3[nH]2)C1` [Compound 2-186, (3S)-1-[5-(4-fluoro-1H-1,3-benzodiazol-2-yl)-2′-(trifluoromethyl)-[3,4′-bipyridin]-4-yl]-3-methylpyrrolidin-3-amine], the “Fold selectivity for SST5 vs SST3” value in series [3] worked out at 158 fold. The IC50 in series [1] (setting [7]) stood at 5.4 µM; in series [1] (setting [8]), 1.1 µM. The results for the EC50 in series [4], in series [5] and in series [5] (setting [9]) were 100 to 1000 nM, under 10 nM and under 10 nM, respectively. Also, the half-life at 1 μM in series [2] was 5.78 h. For the same molecule, the “Fold selectivity for SST5 vs SST2” value in series [5] is “+++ (+++=≥500)”.
For `COc1cc(-c2cncc(-c3nc4c(F)cccc4[nH]3)c2N2CC[C@](C)(N)C2)ccn1` [Compound 2-187, (3S)-1-[5-(4-fluoro-1H-1,3-benzodiazol-2-yl)-2′-methoxy-[3,4′-bipyridin]-4-yl]-3-methylpyrrolidin-3-amine], the “Fold selectivity for SST5 vs SST3” value in series [3] was determined as 93 fold. The IC50 in series [1] (setting [7]) is over 10 µM; in series [1] (setting [8]) it was 2.9 µM. Moreover, the EC50 in series [4] is 100 to 1000 nM; in series [5], under 10 nM; in series [5] (setting [9]), under 10 nM. For the same molecule, the half-life at 1 μM in series [2] turned out to be 0.683 h. Also, the “Fold selectivity for SST5 vs SST2” value in series [5] is reported as “++ (++=100 to 499)”.
In the case of `Cc1cc(-c2cncc(-c3nc4nccc(C)c4[nH]3)c2N2CC[C@](C)(N)C2)ccc1F` [Compound 2-188, (3S)-1-[3-(4-fluoro-3-methylphenyl)-5-{7-methyl-1H-imidazo[4,5-b]pyridin-2-yl}pyridin-4-yl]-3-methylpyrrolidin-3-amine], in series [3], the “Fold selectivity for SST5 vs SST3” value came to 16 fold. Moreover, the IC50 in series [1] (setting [7]) is over 10 µM; in series [1] (setting [8]), 8.7 µM. The results for the EC50 in series [4], in series [5] and in series [5] (setting [9]) were 100 to 1000 nM, under 10 nM and under 10 nM, respectively. Moreover, the half-life at 1 μM in series [2] was 0.55 h. In addition, the “Fold selectivity for SST5 vs SST2” value in series [5] is reported as “++ (++=100 to 499)”.
Regarding `COc1cc(-c2cncc(-c3nc4nccc(C)c4[nH]3)c2N2CC[C@](C)(N)C2)ccc1F` [Compound 2-189, (3S)-1-[3-(4-fluoro-3-methoxyphenyl)-5-{7-methyl-1H-imidazo[4,5-b]pyridin-2-yl}pyridin-4-yl]-3-methylpyrrolidin-3-amine], the “Fold selectivity for SST5 vs SST3” value in series [3] came out at 27 fold. Moreover, the IC50 in series [1] (setting [7]) and in series [1] (setting [8]) was over 10 µM in each case. Besides, the EC50 in series [4] was 10 to 100 nM; in series [5] it was under 10 nM; in series [5] (setting [9]) it was under 10 nM. The half-life at 1 μM in series [2] was over 11.6 h. The “Fold selectivity for SST5 vs SST2” value in series [5] was “++ (++=100 to 499)”.
In the case of `Cc1ccnc2nc(-c3cncc(-c4ccc(F)c(F)c4)c3N3CC[C@](C)(N)C3)[nH]c12` [Compound 2-190, (3S)-1-[3-(3,4-difluorophenyl)-5-{7-methyl-1H-imidazo[4,5-b]pyridin-2-yl}pyridin-4-yl]-3-methylpyrrolidin-3-amine], in series [3], the “Fold selectivity for SST5 vs SST3” value is 16 fold. Moreover, the IC50 in series [1] (setting [7]) and in series [1] (setting [8]) was over 10 µM throughout. For the same molecule, the figures for the EC50 in series [4], in series [5] and in series [5] (setting [9]) were 10 to 100 nM, under 10 nM and under 10 nM, respectively. For the same molecule, the half-life at 1 μM in series [2] was found to be 2.32 h. Further, the “Fold selectivity for SST5 vs SST2” value in series [5] is “+ (+=10 to 99)”.
Turning to `Cc1ccnc2nc(-c3cncc(-c4ccc(F)c(C(F)(F)F)c4)c3N3CC[C@](C)(N)C3)[nH]c12` [Compound 2-191, (3S)-1-{3-[4-fluoro-3-(trifluoromethyl)phenyl]-5-{7-methyl-1H-imidazo[4,5-b]pyridin-2-yl}pyridin-4-yl}-3-methylpyrrolidin-3-amine], the “Fold selectivity for SST5 vs SST3” value in series [3] is 24 fold. In addition, the IC50 was 5.7 µM in series [1] (setting [7]) and 5.1 µM in series [1] (setting [8]). Besides, the EC50 in series [4] was 100 to 1000 nM; in series [5], under 10 nM; in series [5] (setting [9]), under 10 nM. Further, the half-life at 1 μM in series [2] was determined as 2.32 h. Further, the “Fold selectivity for SST5 vs SST2” value in series [5] is reported as “+++ (+++=≥500)”.
For the molecule `C[C@]1(N)CCN(c2c(-c3cccc(C#N)c3)cncc2-c2nc3c(F)cccc3[nH]2)C1` [Compound 2-200, 3-{4-[(3S)-3-amino-3-methylpyrrolidin-1-yl]-5-(4-fluoro-1H-1,3-benzodiazol-2-yl)pyridin-3-yl}benzonitrile], in series [6], the “Fold selectivity for SST5 vs SST4” value is 136 fold. Moreover, in series [3], the “Fold selectivity for SST5 vs SST3” value amounted to 159 fold. For the same molecule, the EC50 in series [4] is 100 to 1000 nM; in series [5] it was under 10 nM; in series [5] (setting [9]) it was under 10 nM. The “Fold selectivity for SST5 vs SST2” value in series [5] was “+++ (+++=≥500)”.

The values above are taken from US11608335B2, “Somatostatin modulators and uses thereof” (CRINETICS PHARMACEUTICALS, INC., priority 2018, dated 2023).
